Assay results: US20250041231A1, “5-AMINOLEVULINIC ACID FOR THE LOCAL TREATMENT OF INFLAMMATORY BOWEL DISEASE” (Intract Pharma Limited, priority 2019, published 2025)
Entries after “also recorded” stand apart in the source; their conditions may differ.

Columns and labels:
[1] = Ussing chamber: mouse colon tissue penetration and permeability of 5-ALA with SFC, metabolite formation; format: in vitro ADME, C57BL6 mice; settings: mouse colon vs human colon, 3 hours
Experimental: (§1) The chambers are made of solid acrylic and supports the tissue membrane in such a way that each side of the membrane is isolated and faces a different chamber representing the luminal (apical) and blood (basal) compartments. The working system consists of a unit to fit a maximum of six vertical chambers, a gas manifold for carbogen purging (95% O2, 5% CO2) and a heater block to maintain the temperature of the chambers at 37° C. during the experiments with the use of a circulating water bath. The chambers are two-piece assemblies held together by a high spring-tension retaining ring to ensure leak-free operation during the experiments.
(§2) The EVOM™ voltohmmeter (World Precision Instruments, Inc., Hertfordshire, UK) and Ag/AgCl electrodes (Harvard Apparatus, Cambridge, UK) were used to measure the trans-epithelial electrical resistance (TEER) of the tissue samples. TEER monitors the presence of functional tight junctions, which are responsible for the barrier function and which limit Paracellular permeation of water and solutes. […]
(§3) For the tissue penetration studies, the freshly excised colon of human subject or C57BL6 mice was collected and transferred to an ice-cold solution of Krebs-Bicarbonate Ringer solution (KBr) of pH 7.4. […] The TEER was continuously monitored during the experiment to confirm the viability and integrity of the tissue.

[2] = test system: DSS induced colitis mouse model
[3] = Ussing chamber: human colon tissue penetration and permeability of 5-ALA with SFC, metabolite formation; format: in vitro ADME
Experimental: as §1, §2, §3

[4] = Human colon model (faecal slurry): stability of 5-ALA with SFC and formation of PpIX; format: in vitro ADME
Experimental: (§4) A human colonic model based on a mixed fecal inoculum was used to mimic the luminal environment of the human large intestine. An anaerobic workstation (Electrotek 500TG™ workstation, Electrotek, West Yorkshire, UK) maintained at 37° C. and 70% relative air humidity was used to set up the model. The fecal material was transferred in the anaerobic workstation and diluted with freshly prepared basal medium to obtain 20% w/w slurry by homogenization. The basal media provides nutrients and growth factors to the microbiota allowing viability for up to 24 hours. The homogenized bacterial media was sieved through an open mesh fabric (SefarNitex™, pore size 350 μm) to remove any nonhomogeneous fibrous material. […]
(§5) For 5-ALA analysis, a 150×4.6-mm Jupiter 5 μm 300 Å (Phenomenex, Torrance, CA) C18 column was used using 70% water (0.1% TFA) and 30% acetonitrile (0.1% TFA) as the mobile phase for elution, at a flow rate of 1 ml/min. The analysis was operated at room temperature and fluorescence detection wavelength was set at 395/480 nm excitation/emission. […]
(§6) For PpIX analysis, a 150×4.6-mm Aeris 3.6 μm 100 Å (Phenomenex, Torrance, CA) C18 column was used using 70% acetonitrile and 30% 10 mM TBA solution (pH 7.5) as the mobile phase at a flow rate of 1 ml/min. The analysis was operated at room temperature and fluorescence detection wavelength was set at 400/630 nm excitation/emission. […]

[5] = Mouse colon model (faecal slurry): stability of 5-ALA with SFC and formation of PpIX; format: in vitro ADME, C57BL6 mice
Experimental: as §4, with “mouse” for “human”, “model. Three healthy male C57BL6 mice were sacrificed and the fecal contents were collected.” for “model.”, “upto” for “up to”, “hours.” for “hours. The homogenized bacterial media was sieved through an open mesh fabric (SefarNitex™, pore size 350 μm) to remove any nonhomogeneous fibrous material.”
as §5, §6

[6] = intra-colonic vs oral, 10 and 100 mg/kg, day 10
[7] = oral vs intra-colonic dosing, day 10

NCC(=O)CCC(=O)O [5-ALA, 5-aminolevulinic acid]
Permeability of 5-ALA across the tissue [1]: higher | Reduction of expression of IL-1β in the colon tissue and plasma [2, 6]: significantly better than after oral administration | Reduction of expression of IL-6 in the colon tissue and plasma [2, 6]: significantly better than after oral administration | Reduction of expression of TNF-α in the colon tissue and plasma [2, 6]: significantly better than after oral administration | Expression of HO-1 in the colon tissue and plasma ([2]; oral vs intra-colonic dosing): no significant difference | Expression of 5-ALA metabolite PpIX in the plasma ([2]; oral vs intra-colonic dosing, 10 and 100 mg/kg): Significantly enhanced expression of PpIX was observed in the plasma after oral dosing, but not intra-colonic dosing | Bilirubin expression in the colon tissue and plasma [2, 7]: no significant difference | Biliverdin expression in the colon tissue and plasma [2, 7]: no significant difference | Reduction in inflammatory cytokines compared with 5-ASA ([2]; vs 5-ASA 50 mg/kg oral and intra-colonic): superior to 5-ASA given both orally and intra-colonic | Tissue conc. of 5-ALA ([3]; human colon vs mouse colon, Ussing chamber, 3 hours): higher in human colon compared to mouse colon | Penetration of 5-ALA into colon tissue ([3]; human colonic tissue in vitro): readily able to penetrate effectively into colon tissue | Stability of 5-ALA in human colon fluid ([4]; 6 mg/ml 5-ALA + 1 mg/ml SFC, 10% w/w human faecal slurry, up to 24 hrs): completely stable; also recorded: very stable | Conversion of 5-ALA into PpIX in human colon fluid ([4]; in the presence of SFC): no conversion; also recorded: no metabolism | Stability of 5-ALA in mouse colon fluid ([5]; 6 mg/ml 5-ALA + 1 mg/ml SFC, 10% w/w mouse faecal slurry, up to 24 hrs): completely stable | Conversion of 5-ALA into PpIX in mouse colon fluid ([5]; in the presence of SFC): no conversion
